7 compounds from US7863315B2, “2-indolinone derivatives as selective histone deacetylase inhibitors” (Shenzhen Chipscreen Biosciences, Ltd., priority 2008, dated 2011) can be followed below.

Common to all, as to type: cell-based
Experiment [1] has as its target T1, HDAC6 (α-tubulin acetylation) (Homo sapiens, UniProt Q9UBN7).
T1 construct: endogenous in cells; host or cells: HeLa
T1 sequence (Q9UBN7 1-1215): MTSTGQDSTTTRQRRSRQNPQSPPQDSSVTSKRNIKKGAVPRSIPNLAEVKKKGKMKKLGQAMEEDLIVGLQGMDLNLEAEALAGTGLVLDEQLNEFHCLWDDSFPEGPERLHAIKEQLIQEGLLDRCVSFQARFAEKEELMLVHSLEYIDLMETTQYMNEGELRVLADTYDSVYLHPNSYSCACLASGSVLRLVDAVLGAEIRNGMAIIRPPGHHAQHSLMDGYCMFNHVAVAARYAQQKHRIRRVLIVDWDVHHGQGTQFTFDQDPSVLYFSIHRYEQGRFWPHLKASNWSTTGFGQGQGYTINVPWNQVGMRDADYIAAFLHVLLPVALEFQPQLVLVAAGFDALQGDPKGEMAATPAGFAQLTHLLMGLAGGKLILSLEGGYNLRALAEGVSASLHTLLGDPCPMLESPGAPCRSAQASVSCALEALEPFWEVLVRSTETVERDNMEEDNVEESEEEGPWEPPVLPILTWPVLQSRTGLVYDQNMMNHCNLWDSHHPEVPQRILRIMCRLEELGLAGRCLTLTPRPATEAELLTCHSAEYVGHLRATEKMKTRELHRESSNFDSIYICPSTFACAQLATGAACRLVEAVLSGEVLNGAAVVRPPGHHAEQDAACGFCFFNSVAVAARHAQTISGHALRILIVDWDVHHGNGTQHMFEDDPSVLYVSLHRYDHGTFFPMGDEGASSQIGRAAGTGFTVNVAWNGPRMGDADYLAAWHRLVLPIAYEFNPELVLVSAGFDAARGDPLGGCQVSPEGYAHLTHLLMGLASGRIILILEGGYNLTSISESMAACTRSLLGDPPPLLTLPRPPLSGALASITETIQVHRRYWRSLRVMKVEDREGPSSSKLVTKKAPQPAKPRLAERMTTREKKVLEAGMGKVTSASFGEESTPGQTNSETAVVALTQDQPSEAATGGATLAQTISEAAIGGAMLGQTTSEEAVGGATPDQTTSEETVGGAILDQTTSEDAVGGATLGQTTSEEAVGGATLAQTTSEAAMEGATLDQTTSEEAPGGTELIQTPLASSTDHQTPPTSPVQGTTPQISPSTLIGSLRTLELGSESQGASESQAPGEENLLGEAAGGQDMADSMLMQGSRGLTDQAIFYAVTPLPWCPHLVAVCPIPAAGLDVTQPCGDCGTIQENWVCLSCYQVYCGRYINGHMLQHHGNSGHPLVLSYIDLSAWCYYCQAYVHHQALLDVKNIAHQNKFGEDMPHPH
As to the kind of experiment: ELISA assay of acetylation of α-tubulin in HeLa cells. Conditions: M-HeLa, 24 hours. The protocol:
Measurement of acetylation activity in cells on substrates:
ELISA assay of acetylation of α-tubulin
This assay is used to measure in vivo inhibition of HDAC6 in a cytoblot assay. Materials and Reagent: • 1. 24-well tissue culture • 2. DMEM Medium containing 10% FBS • 3. 96-well white plate • 4. HeLa cell line • 5. M-PER Mammalian Protein Extraction Reagent (Pierce) • 6. Bradford assay reagent • 7. Anti-acetyl-tubulin (Upstate) • 8. HRP-labeled anti-mouse IgG (Upstate) • 9. Coating Buffer: 15 mM Na2CO3, 35 mM NaHCO3 (pH 9.6) • 10. 10×PBS: 0.58 M Na2HPO4, 0.17M NaH2PO4, 0.68M NaCl (pH 7.4) • 11. Wash Buffer:1×PBS containing 0.05% Tween-20 (PBST) • 12. Blocking Buffer:10 mg/ml bocine serum albumin (BSA) in PBS • 13. Antibody Dilution Buffer: 5 mg/ml BSA in PBST • 14. Enhanced chemiluminescence (ECL) (Amersham)
Procedure for performing the assay in 96-well plate: • 1. HeLa cells were seeded at a density of 60000 cells/500 μl/well in 24-well plate and incubated at 37° C. for 24 hours. • 2. Compounds were added and incubated for 24 hours at 37° C. • 3. Culture medium was removed, then washes the cells twice with ice-cold PBS. • 4. Add 100 μl/well of Protein Extraction Reagent and gently shake the mixture for 5 minutes. • 5. Collect the lysate to a 96-well plate respectively. Determine the concentration of protein by Bradford assay. • 6. Coat the wells of a 96-well white plate with 100 μl/well of 2.5 μg whole cell protein in Coating Buffer by incubating overnight at 4° C. • 7. Discard the uncoated proteins and wash the coated wells three times with 200 μl/well of PBST. • 8. Block coated wells by incubating the plate with 200 μl/well of Blocking Buffer for 1 hour at 37° C. • 9. Wells were aspirated and washed three times with 200 μl/well of PBST. • 10. After aspirating, 50 μl/well of Antibody Dilution Buffer containing anti-Ac-tubulin (1:1000) were added to each well and incubated for 2 hour at 37° C. • 11. Wells were aspirated and washed three times with 200 μl/well of PBST. • 12. 50 μl/well of Antibody Dilution Buffer containing HRP-labeled anti-mouse IgG (1:2000) were added to each well and incubated for 2 hour at 37° C. • 13. Wells were aspirated and washed three times with 200 μl/well of PBST. • 14. Wells were washed three times with 200 μl/well of purified water. • 15. Add 50 μl/well of ECL mixture, then read the plates on the plate reader.
On the technique in general: ELISA stands for enzyme-linked immunosorbent assay.

Experiment [2] deals with Hut-78 human T lymphoma cell line. The experiment in a line: Anti-cell proliferation (MTS), Hut-78. The conditions noted are these: HuT78, 72 hours. The protocol:
(§1) Measurement of in vivo cell proliferation:
(§2) Tumor cells were trypsinized and plated into 96-well plates at 3,000 per well and incubated in complete medium with 10% FBS for 24 hours. Compounds were added over a final concentration range of 100 μmol/L to 100 nmol/L in 0.1% DMSO and incubated for 72 hours in complete medium. The effects on proliferation were determined by addition of MTS reagent (Promega) according to the instruction, incubation for 2 hours at 37° C. in CO2 incubator, and record the absorbance at 490 nm using an ELISA plate reader.

The subject of experiment [3] is HL60 human leukemia cell line. As to the kind of experiment: Anti-cell proliferation (MTS), HL60. The conditions noted are these: HL-60, 72 hours. The protocol:
as §1, §2

For experiment [4], the system named is HeLa human cervical cancer cell line. The experiment in a line: Anti-cell proliferation (MTS), HeLa. The conditions noted are these: 72 hours. As to the method:
as §1, §2

Experiment [5] has as its system A549 human lung cancer cell line. As to the kind of experiment: Anti-cell proliferation (MTS), A549. The conditions noted are these: 72 hours. As to the method: as §1, §2

What is called fold induction is the signal under treatment as a multiple of the control signal. By GI50 is commonly meant the concentration giving 50% growth inhibition. Lower therefore signals more potent growth inhibition. Regarding `Nc1cc(F)ccc1NC(=O)CCCCCCCNC(=O)c1ccc(/C=N/N=C2\C(=O)Nc3ccc(F)cc32)cc1` [Example 36, 8-(4-(((5-fluoro-2-oxoindolin-3-ylidene)hydrazono)methyl)benzamido)-N-(2-amino-4-fluorophenyl)octanamide], the fold induction at 10 µM in experiment [1] was found to be 1.57. Also, the GI50 is 10.7 µM in experiment [2], 14.8 µM in experiment [3], 55 µM in experiment [4] and 30.2 µM in experiment [5].
The like results for `Nc1ccccc1NC(=O)CCCCCNC(=O)c1ccc(/C=C2\C(=O)Nc3ccc(F)cc32)cc1` [Example 39, 6-(4-((5-fluoro-2-oxoindolin-3-ylidene)methyl)benzamido)-N-(2-aminophenyl)hexanamide] were, in that order, 0.93, 4.17 µM, 4.17 µM, 22.9 µM and 28.8 µM.
Turning to `Nc1cc(F)ccc1NC(=O)CCCCCNC(=O)c1ccc(/C=C2\C(=O)Nc3ccc(F)cc32)cc1` [Example 40, 6-(4-((5-fluoro-2-oxoindolin-3-ylidene)methyl)benzamido)-N-(2-amino-4-fluorophenyl)hexanamide], the fold induction at 10 µM in experiment [1] came to 1.04. The GI50 in experiment [2] worked out at 4.17 µM; in experiment [3], 5.75 µM; in experiment [4], 33.9 µM; in experiment [5], 36.3 µM.
In the same order, the values of `Nc1ccccc1NC(=O)CCCCCNC(=O)c1cccc(/C=C2\C(=O)Nc3ccc(F)cc32)c1` [Example 44, 6-(3-((5-fluoro-2-oxoindolin-3-ylidene)methyl)benzamido)-N-(2-aminophenyl)hexanamide] are 2.66, 4.37 µM, 2.95 µM, 11 µM and 19.5 µM.
As for `Nc1cc(F)ccc1NC(=O)CCCCNC(=O)c1cccc(/C=C2\C(=O)Nc3ccc(F)cc32)c1` [Example 50, 5-(3-((5-fluoro-2-oxoindolin-3-ylidene)methyl)benzamido)-N-(2-amino-4-fluorophenyl)pentanamide], in experiment [1], the fold induction at 10 µM was determined as 1.97. Moreover, the GI50 in experiment [2] was 6.76 µM; in experiment [3], 3.98 µM; in experiment [4], 20.9 µM; in experiment [5], 35.5 µM.
In the same order, the values of `Nc1ccccc1NC(=O)CCCCCCCNC(=O)c1cccc(/C=C2\C(=O)Nc3ccc(F)cc32)c1` [Example 54, 8-(3-((5-fluoro-2-oxoindolin-3-ylidene)methyl)benzamido)-N-(2-aminophenyl)octanamide] are 2.91, 3.89 µM, 2.46 µM, 18.2 µM and 24 µM.
With `O=C(CCCCCCCNC(=O)c1cccc(/C=C2\C(=O)Nc3ccc(F)cc32)c1)NO` [Example 56, 8-(3-((5-fluoro-2-oxoindolin-3-ylidene)methyl)benzamido)-N-hydroxyoctanamide], in experiment [1], the fold induction at 10 µM was 2.66. In addition, the GI50 in experiment [2] turned out to be 4.57 µM; in experiment [3], 5.62 µM; in experiment [4] it was 17.4 µM; in experiment [5], 28.8 µM.
